Measured values from publication PMC3292765 (Chemistry & biology, 2012).
Like-named read-outs stand apart in the source and are kept apart here.

Key:
p67^phox [1] = biological target: T1, p67^phox (Homo sapiens, UniProt P19878); test: microscale thermophoresis with labeled recombinant protein; format: binding
T1 sequence (P19878 1-212): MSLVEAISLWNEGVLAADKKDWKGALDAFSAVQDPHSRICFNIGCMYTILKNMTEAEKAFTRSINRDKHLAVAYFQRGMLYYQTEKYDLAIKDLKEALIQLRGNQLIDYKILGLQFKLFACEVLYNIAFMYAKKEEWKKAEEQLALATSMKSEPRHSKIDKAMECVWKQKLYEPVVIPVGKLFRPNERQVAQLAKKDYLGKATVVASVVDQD

p67^phox [2] = biological target: T1, p67^phox; test: as above; format: binding; remark: listed apart in the source

Kd (p67^phox [1])	Kd (p67^phox [2])	Compound
~150 nM	–	O=[N+]([O-])c1cccc(C2Nc3ccc([N+](=O)[O-])cc3C3C=CCC32)c1 (centres unmarked) [compound 16, Phox-I2]
–	~100 nM	Phox-I1
